Legend:
[1] = biological target: T1, Serine/threonine-protein kinase STK11 (Homo sapiens) (UniProt Q15831); assay: Selectivity interaction (KinomeScan (DiscoverX)) EUB0000666a STK11; conditions: at 10 µM
T1 sequence (whole entry): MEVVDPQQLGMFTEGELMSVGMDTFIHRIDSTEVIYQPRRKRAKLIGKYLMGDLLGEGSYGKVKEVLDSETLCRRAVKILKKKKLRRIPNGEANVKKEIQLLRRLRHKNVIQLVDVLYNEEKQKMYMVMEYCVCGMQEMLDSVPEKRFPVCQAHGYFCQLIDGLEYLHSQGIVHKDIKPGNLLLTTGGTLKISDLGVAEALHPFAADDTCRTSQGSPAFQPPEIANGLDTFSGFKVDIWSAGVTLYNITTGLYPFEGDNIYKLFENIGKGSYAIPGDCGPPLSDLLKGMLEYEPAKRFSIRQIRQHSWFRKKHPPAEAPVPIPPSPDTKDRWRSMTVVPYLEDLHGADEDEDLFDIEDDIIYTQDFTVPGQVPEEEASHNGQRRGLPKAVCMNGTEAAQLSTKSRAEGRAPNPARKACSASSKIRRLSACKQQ

[2] = biological target: T2, Mitogen-activated protein kinase kinase kinase 6 (Homo sapiens) (UniProt O95382); assay: Selectivity interaction (ActivX KiNativ screen (kinase selectivity in THP-1 cell lysates)) EUB0000639a MAP3K6; format: subcellular; conditions: lysate, at 1 µM
T2 sequence (whole entry): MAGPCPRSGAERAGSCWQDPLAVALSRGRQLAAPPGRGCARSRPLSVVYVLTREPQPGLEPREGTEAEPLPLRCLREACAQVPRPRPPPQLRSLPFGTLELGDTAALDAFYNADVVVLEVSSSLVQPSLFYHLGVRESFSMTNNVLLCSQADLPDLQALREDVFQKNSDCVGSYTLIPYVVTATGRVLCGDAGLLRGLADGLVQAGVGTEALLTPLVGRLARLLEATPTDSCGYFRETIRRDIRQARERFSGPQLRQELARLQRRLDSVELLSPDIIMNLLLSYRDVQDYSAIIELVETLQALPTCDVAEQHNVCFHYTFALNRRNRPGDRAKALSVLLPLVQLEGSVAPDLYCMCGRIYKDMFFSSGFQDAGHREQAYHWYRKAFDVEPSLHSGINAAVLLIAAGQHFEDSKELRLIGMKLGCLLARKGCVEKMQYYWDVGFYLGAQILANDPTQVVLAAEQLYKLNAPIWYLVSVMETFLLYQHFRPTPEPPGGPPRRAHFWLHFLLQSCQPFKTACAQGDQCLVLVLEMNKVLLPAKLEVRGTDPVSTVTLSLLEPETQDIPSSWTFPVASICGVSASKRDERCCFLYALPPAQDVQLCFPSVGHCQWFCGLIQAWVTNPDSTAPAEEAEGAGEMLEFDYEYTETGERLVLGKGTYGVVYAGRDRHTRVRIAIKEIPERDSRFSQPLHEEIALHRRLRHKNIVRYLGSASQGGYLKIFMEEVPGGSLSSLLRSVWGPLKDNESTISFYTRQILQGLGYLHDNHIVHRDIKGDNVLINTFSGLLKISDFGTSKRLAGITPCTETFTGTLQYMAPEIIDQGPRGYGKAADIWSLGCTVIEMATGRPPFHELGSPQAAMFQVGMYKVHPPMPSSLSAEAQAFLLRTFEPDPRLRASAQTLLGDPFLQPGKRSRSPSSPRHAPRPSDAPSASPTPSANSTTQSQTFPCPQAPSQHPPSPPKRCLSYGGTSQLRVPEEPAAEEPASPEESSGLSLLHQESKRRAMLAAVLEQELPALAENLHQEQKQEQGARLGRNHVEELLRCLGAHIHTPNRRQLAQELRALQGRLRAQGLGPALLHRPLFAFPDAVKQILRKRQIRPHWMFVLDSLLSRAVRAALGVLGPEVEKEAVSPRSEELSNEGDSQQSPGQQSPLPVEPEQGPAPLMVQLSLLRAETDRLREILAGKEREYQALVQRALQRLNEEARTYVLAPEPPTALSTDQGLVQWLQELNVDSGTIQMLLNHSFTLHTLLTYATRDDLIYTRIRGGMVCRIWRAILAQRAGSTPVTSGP

[3] = biological target: Proto-oncogene tyrosine-protein kinase ROS (Homo sapiens) (UniProt P08922); assay: Selectivity interaction (ProQinase) EUB0000171b ROS1
Proto-oncogene tyrosine-protein kinase ROS (Homo sapiens), sequence (P08922 whole entry): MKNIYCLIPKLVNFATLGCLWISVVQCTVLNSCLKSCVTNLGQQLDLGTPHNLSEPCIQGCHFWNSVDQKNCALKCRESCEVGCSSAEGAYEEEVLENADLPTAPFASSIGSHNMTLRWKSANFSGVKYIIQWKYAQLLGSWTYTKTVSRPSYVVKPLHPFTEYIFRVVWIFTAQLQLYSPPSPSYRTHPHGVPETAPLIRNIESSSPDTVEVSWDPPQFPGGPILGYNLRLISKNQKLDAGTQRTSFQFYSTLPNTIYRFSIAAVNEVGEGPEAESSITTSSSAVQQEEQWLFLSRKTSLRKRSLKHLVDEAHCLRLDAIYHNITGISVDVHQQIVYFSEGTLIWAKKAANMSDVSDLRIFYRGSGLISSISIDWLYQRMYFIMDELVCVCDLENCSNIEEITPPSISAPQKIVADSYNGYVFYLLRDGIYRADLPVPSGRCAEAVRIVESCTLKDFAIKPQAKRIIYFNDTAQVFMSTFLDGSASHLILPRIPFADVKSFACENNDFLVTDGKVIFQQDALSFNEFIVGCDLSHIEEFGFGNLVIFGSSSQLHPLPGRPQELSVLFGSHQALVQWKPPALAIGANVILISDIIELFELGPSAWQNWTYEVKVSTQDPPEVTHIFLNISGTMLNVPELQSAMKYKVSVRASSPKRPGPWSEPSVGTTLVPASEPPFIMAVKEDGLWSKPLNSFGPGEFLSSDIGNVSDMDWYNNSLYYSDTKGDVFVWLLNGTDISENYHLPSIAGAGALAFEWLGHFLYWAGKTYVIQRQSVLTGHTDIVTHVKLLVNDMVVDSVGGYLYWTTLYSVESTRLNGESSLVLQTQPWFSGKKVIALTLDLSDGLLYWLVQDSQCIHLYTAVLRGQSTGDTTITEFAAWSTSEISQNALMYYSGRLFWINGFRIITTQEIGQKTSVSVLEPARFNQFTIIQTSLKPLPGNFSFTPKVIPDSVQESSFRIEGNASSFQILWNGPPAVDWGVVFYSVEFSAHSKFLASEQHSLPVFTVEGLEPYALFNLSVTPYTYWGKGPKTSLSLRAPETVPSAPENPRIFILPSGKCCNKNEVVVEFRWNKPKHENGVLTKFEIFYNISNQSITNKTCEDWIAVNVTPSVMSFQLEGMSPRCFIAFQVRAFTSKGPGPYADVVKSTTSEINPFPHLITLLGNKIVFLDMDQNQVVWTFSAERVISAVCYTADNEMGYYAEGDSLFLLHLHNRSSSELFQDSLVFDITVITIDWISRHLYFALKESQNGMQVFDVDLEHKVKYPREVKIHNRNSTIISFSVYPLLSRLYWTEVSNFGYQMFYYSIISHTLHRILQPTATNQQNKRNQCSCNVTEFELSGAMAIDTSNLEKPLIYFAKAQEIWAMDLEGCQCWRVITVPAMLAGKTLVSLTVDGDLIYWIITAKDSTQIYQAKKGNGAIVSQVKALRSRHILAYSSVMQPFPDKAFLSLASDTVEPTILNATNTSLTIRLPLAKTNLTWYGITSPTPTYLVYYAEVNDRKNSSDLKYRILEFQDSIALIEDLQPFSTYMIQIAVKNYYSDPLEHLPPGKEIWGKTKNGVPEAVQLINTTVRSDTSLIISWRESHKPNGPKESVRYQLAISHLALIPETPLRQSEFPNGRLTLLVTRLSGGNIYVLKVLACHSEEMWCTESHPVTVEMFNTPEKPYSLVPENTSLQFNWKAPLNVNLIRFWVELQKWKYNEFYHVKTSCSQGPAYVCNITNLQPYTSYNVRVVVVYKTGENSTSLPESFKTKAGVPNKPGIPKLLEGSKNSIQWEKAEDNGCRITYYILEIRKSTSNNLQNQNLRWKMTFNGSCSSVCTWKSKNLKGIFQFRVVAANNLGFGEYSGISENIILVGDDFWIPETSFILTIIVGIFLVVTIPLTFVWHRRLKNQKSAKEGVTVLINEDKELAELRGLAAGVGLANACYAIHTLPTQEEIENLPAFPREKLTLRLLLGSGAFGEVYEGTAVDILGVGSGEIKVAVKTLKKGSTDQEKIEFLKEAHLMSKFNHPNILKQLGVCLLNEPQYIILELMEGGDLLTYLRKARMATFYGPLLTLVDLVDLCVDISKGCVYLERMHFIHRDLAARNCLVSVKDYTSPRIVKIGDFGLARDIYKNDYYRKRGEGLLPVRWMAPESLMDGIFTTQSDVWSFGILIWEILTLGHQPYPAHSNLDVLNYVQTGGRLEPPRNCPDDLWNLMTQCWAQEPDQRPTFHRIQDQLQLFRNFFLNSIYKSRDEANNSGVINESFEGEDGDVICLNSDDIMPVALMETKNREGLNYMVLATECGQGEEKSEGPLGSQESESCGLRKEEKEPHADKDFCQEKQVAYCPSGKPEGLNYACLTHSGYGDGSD

[4] = biological target: Mitogen-activated protein kinase 14 (Homo sapiens, UniProt Q16539); assay: Selectivity interaction (KinomeScan (DiscoverX)) EUB0000695a MAPK14; conditions: at 100 nM
Mitogen-activated protein kinase 14, sequence (Q16539 whole entry): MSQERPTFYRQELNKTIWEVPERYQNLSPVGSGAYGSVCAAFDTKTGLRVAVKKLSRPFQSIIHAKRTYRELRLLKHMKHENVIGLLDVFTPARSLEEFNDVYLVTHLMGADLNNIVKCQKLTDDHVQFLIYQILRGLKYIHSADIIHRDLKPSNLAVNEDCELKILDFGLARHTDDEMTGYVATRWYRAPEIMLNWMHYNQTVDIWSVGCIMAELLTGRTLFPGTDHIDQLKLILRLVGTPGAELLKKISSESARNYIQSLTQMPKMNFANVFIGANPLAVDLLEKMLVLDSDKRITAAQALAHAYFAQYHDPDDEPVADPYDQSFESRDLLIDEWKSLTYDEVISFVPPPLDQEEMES

[5] = biological target: Tyrosine-protein kinase FRK (Homo sapiens) (UniProt P42685); assay: Selectivity interaction (KinomeScan (DiscoverX)) EUB0001049a FRK; conditions: at 1 µM
Tyrosine-protein kinase FRK (Homo sapiens), sequence (P42685 whole entry): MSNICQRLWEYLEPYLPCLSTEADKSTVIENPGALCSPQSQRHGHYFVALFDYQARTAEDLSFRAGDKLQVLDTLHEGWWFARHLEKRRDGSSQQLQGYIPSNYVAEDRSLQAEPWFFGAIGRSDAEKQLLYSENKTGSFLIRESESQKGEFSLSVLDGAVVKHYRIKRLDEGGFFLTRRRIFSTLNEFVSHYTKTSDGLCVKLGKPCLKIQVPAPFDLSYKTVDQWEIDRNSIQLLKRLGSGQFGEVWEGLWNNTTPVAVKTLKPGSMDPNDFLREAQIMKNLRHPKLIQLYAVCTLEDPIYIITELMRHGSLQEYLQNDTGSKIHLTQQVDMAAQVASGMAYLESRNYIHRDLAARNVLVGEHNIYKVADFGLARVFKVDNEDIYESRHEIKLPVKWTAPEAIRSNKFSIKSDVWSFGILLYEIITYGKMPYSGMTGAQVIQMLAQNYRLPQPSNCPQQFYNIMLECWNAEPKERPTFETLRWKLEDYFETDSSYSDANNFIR

[6] = biological target: T3, MAP kinase-activated protein kinase 5 (Homo sapiens) (UniProt Q8IW41); assay: Selectivity interaction (Millipore kinase profiler) EUB0000124b MAPKAPK5; conditions: at 10 µM
T3 sequence (whole entry): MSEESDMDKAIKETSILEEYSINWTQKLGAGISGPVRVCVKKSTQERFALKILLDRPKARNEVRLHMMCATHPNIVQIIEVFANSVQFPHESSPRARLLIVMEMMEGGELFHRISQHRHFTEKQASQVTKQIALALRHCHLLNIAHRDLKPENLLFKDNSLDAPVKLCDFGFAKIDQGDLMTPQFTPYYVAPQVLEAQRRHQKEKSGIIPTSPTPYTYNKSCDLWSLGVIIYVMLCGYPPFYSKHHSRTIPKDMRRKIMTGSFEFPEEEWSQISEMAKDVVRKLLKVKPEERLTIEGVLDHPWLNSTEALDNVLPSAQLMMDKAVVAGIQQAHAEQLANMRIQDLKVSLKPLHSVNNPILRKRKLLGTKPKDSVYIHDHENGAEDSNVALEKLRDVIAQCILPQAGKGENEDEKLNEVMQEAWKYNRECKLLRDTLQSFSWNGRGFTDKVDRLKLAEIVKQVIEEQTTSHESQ

[7] = biological target: Mitogen-activated protein kinase kinase kinase kinase 5 (Homo sapiens) (UniProt Q9Y4K4); assay: Selectivity interaction (Kinase panel (KiNativ target engagement assay in Jurkat cells)) EUB0001635a MAP4K5; format: cell-based; conditions: Selectivity number of off-targets 0.0, Selectivity number of targets 233.0, Source Knowledge https://www.sciencedirect.com/science/article/pii/S2451945619300674?via%3Dihub, at 1 µM
Mitogen-activated protein kinase kinase kinase kinase 5 (Homo sapiens), sequence (Q9Y4K4 whole entry, looked up): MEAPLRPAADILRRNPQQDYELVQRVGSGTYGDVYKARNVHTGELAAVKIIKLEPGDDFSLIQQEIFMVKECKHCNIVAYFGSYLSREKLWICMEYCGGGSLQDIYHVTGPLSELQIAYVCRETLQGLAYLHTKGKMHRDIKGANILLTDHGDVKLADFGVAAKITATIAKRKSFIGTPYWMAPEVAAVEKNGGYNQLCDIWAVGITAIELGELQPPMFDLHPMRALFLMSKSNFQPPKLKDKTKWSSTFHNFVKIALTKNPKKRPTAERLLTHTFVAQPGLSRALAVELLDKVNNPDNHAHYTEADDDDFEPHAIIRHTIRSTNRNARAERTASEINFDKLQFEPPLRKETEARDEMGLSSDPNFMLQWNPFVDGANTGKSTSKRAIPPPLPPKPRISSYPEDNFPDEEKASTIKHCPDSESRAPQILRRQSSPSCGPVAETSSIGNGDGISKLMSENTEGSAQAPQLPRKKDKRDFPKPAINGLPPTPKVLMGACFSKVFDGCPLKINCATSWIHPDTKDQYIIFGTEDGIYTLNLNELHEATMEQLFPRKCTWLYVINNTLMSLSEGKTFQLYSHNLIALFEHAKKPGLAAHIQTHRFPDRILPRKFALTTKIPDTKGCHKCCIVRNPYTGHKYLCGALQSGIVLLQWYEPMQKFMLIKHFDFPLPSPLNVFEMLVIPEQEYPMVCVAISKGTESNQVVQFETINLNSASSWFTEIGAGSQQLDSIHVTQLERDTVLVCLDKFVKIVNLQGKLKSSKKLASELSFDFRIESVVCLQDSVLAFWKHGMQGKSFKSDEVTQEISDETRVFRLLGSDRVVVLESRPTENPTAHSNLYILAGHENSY

[8] = biological target: Ribosomal protein S6 kinase alpha-6 (Homo sapiens, UniProt Q9UK32); assay: Selectivity interaction (KinomeScan (DiscoverX)) EUB0001619a RPS6KA6; conditions: at 1 µM
Ribosomal protein S6 kinase alpha-6, sequence (Q9UK32 whole entry): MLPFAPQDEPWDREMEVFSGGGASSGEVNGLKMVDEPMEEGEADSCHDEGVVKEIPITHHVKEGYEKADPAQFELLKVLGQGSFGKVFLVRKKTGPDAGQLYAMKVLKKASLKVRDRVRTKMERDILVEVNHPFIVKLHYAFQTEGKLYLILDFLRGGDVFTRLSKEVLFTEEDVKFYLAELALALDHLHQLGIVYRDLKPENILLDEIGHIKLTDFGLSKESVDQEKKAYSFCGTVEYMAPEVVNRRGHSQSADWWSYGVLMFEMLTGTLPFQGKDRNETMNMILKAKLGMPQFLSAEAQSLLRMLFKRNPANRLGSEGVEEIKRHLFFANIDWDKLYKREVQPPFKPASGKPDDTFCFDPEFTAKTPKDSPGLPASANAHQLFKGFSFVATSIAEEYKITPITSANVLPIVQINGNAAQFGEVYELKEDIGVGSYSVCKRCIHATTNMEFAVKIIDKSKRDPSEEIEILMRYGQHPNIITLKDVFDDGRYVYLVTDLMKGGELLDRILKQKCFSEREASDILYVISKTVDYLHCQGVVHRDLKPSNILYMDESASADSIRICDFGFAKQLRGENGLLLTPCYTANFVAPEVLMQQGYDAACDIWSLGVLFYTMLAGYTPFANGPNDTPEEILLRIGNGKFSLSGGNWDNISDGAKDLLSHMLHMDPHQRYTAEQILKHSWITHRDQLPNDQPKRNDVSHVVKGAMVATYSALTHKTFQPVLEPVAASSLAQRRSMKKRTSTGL

O=C(NOC[C@H](O)CO)c1ccc(F)c(F)c1Nc1ccc(I)cc1F
% of control [1]: 83%

CC[C@@H]1[C@H](F)C(=O)N[C@@H]1COc1nccc2cc(C(N)=O)c(OC)cc12 [ZIMLOVISERTIB]
% of inhibition [2]: -16.4%

C=CC(=O)Nc1cccc(C(=O)Nc2ccc(Nc3cc(-c4[nH]c(SC)nc4C)ccn3)cc2)c1
% of control ([3]; at 1 µM): 87% | % of control ([3]; at 5 µM): 74%

Cc1cc(F)c(C(=O)Nc2cccc(-c3nncn3C(C)C)n2)cc1-n1cnc(C2CC2)c1
% of control [4]: 100%

COc1cc(Nc2nc(C)cc(-c3cnn4nc(OC)ccc34)n2)cc(C(F)(F)F)c1
% of control [5]: 100%

CC(=O)Nc1cccc(-n2c(=O)n(C3CC3)c(=O)c3c(Nc4ccc(I)cc4F)n(C)c(=O)c(C)c32)c1
% of control [6]: 91%

C=CC(=O)Nc1ccc(C(=O)Nc2[nH]nc3c2CN(C(=O)N[C@H](CN(C)C)c2ccccc2)C3(C)C)cc1
% of engagement [7]: 1.1%

N#Cc1cccc(-c2c[nH]c3ncnc(N4CCOCC4)c23)c1
% of control [8]: 9.8%

Reference: ChEMBL document CHEMBL5465560, “Selectivity Literature for EUbOPEN Chemogenomic Library” (2024)
